The source made the active and inactive calls.
Legend:
[1] = target: T1, Voltage-dependent T-type calcium channel subunit alpha-1H (Homo sapiens, UniProt O95180); assay: Inhibitors of T-Type Calcium Channels. [Related pubchem assays (depositor defined):AID449739, AID463087, AID489005, AID493041, AID504579, AID504584, AID504619, AID504628]; type: functional
[2] = target: Prothrombin (Homo sapiens, UniProt P00734); assay: Thrombin 1536 HTS Dose Response Confirmation. [Related pubchem assays: 1046 (Thrombin 1536 HTS; hits were confirmed in this assay)]; type: functional
[3] = target: T2, Coagulation factor XII (Homo sapiens, UniProt P00748); type: functional;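 also: activated factor XIIa alpha cleaving a fluorogenic AMC peptide substrate; inhibitor potency from loss of enzyme activity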
T2 sequence (P00748 whole entry): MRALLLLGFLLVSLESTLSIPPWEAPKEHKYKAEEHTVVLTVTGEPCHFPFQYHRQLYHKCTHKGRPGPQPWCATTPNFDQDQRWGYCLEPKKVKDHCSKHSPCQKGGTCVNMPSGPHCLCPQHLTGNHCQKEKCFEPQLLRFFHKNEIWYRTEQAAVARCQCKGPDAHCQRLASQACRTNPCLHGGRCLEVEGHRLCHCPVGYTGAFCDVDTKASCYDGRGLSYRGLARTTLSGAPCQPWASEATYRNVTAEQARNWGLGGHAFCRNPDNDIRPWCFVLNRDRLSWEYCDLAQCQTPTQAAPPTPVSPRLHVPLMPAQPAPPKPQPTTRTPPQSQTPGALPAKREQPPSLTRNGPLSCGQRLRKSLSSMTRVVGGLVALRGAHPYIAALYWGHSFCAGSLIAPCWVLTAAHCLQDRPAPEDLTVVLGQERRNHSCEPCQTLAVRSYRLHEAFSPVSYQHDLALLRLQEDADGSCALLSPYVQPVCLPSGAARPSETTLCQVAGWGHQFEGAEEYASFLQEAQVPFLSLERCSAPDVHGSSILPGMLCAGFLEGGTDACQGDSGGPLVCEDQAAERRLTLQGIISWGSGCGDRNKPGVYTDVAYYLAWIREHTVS

[4] = target: T1, Voltage-dependent T-type calcium channel subunit alpha-1H; type: functional
[5] = target: T3, Short transient receptor potential channel 4 (Mus musculus, UniProt Q9QUQ5); assay: block of DAMGO-driven TRPC4 calcium entry – cell-based, HEK293 TRPC4/mu-opioid, Fluo-4 calcium, dose response (AID 434942); type: functional;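 also: potency of inhibitors blocking the TRPC4 calcium response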
T3 sequence (Q9QUQ5 whole entry): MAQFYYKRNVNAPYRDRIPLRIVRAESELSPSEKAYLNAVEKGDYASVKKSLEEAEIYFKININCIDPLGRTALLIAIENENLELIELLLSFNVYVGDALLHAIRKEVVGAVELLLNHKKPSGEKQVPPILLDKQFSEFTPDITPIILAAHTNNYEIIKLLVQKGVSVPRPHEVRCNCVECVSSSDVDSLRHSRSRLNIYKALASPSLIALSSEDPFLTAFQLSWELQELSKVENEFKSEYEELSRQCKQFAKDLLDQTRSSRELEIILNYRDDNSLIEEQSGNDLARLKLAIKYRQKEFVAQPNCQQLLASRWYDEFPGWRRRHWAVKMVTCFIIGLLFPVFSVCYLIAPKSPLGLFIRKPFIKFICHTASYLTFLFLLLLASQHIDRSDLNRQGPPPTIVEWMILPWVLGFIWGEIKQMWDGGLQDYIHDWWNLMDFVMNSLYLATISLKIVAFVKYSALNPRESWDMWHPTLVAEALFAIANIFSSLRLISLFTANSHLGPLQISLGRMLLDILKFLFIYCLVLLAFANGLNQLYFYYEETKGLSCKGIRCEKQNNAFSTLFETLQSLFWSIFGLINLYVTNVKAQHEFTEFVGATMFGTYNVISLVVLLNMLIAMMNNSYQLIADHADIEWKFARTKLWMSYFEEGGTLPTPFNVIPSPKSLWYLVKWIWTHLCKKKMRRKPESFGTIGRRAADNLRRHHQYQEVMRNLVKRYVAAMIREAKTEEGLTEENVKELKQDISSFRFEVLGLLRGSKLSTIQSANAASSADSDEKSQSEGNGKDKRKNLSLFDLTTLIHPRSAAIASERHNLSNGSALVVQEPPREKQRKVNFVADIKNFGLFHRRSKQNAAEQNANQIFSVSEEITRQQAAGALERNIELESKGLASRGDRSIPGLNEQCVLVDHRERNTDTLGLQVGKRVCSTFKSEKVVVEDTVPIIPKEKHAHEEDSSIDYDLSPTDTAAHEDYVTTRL

[6] = target: T4, Protein skinhead-1 (Caenorhabditis elegans, UniProt P34707); type: functional
T4 sequence (P34707 whole entry): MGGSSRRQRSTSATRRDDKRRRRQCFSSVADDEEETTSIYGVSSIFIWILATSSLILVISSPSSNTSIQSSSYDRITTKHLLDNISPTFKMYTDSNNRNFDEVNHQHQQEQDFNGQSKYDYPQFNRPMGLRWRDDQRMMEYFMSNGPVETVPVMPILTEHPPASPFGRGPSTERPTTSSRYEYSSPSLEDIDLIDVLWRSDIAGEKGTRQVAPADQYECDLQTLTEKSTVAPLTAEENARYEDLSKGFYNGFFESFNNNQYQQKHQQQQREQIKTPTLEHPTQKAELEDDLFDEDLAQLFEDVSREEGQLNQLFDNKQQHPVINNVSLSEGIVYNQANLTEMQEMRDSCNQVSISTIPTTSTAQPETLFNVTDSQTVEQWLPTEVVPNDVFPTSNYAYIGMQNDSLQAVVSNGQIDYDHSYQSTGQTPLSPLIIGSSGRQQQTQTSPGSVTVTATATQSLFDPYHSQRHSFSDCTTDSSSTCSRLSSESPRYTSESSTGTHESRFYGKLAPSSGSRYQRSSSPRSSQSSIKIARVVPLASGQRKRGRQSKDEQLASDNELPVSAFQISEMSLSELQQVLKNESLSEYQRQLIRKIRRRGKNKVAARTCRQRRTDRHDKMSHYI

[7] = target: T5, Caspase-3 (Homo sapiens, UniProt P42574); assay: activators of human procaspase-3 D3A mutant – biochemical, absorbance, PC-3 D3A mutant, counter-screen for dual procaspase-3/7 activator project, dose response (AID 504328)
T5 sequence (P42574 whole entry): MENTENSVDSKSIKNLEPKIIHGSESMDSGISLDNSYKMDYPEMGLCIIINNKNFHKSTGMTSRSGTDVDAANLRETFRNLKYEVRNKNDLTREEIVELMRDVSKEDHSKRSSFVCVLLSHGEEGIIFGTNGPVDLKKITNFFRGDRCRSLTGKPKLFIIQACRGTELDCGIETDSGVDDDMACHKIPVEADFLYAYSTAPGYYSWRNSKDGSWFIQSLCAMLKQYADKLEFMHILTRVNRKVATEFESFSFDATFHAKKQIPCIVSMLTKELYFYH

[8] = target: Caspase-7 (Homo sapiens, UniProt P55210); assay: potency of procaspase-7 enzyme activation – biochemical, absorbance, human, dual procaspase-3/-7 activator project, dose response (AID 504330)
[9] = target: Paired box protein Pax-8 (Homo sapiens, UniProt Q06710); assay: PAX8 transcriptional activity inhibition in RMG-I – RMG-I cells, luciferase, cherry-pick, dose response (AID 687027); type: functional, cell-based;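 also: luciferase reporter driven by Pax8 target thyroperoxidase promoter measured by SteadyGlo luminescence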
[10] = potency of ADAM10 substrate cleavage blockers – biochemical, QFRET, dose response (AID 743254);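 also: ADAM10 enzyme with the DM2 quenched FRET peptide as substrate; EDANS fluorescence gain as the protease cuts the substrate; inhibitor potency against ADAM10 proteolytic activity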
[11] = target: T6, Microphthalmia-associated transcription factor (Homo sapiens, UniProt O75030); assay: reducers of TRPM1 reporter luminescence, concentration series – cell-based, SK-MEL-5, cherry-picked, set 3, MITF inhibitor project, dose response (AID 493073); type: functional;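 also: SK-MEL-5 melanoma cells with luciferase driven by the MITF target TRPM1 promoter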
T6 sequence (O75030 whole entry): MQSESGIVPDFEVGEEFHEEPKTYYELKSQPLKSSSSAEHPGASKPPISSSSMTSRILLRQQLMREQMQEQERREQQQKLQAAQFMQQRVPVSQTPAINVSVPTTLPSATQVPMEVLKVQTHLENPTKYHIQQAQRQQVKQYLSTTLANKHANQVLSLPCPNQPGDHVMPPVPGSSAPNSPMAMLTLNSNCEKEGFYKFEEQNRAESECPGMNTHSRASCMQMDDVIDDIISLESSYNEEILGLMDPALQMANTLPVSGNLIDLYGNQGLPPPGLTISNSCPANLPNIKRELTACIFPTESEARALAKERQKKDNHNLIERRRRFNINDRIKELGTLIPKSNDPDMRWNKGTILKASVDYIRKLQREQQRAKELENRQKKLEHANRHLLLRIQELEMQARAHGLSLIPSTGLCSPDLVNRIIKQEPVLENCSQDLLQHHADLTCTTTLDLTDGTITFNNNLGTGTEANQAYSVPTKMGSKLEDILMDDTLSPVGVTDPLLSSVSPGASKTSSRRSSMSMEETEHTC

[12] = blockade of melanocortin 4 receptor signaling – cell-based, plate reader, cherry pick, counter-screen for LGR2 antagonist project, dose response (AID 743444); type: functional;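 also: transfected HEK 293 cells stimulated with alpha-MSH peptide; potency of inhibitors of the alpha-MSH evoked signal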
[13] = blockers of bursicon-stimulated LGR2 cAMP reporter – cell-based, HEK293, CRE-luciferase reporter, cherry pick, set 2, dose response (AID 743343); type: functional;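 also: transfected cells were stimulated with diluted bursicon conditioned medium after compound addition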
[14] = general cell-killing toxicity readout – plate reader, dry powder samples, cytotoxicity control for PAX8 inhibitor project, dose response (AID 743021); type: functional, cell-based
[15] = cells; type: functional
[16] = system: A-375; assay: proliferation inhibition in MITF-low A375 cells – cell-based, cherry-pick samples, set 2, counter-screen for MITF modulator project, dose response (AID 540335); type: functional; conditions: Homo sapiens
[17] = toxicity toward HepG2 liver cells – cell-based, plate reader, cherry-pick, antagonist series, cytotoxicity control, dose response (AID 743416); type: functional
[18] = microbe, parasite or virus in culture; type: functional; conditions: Mycobacterium tuberculosis
[19] = THP-1 cell cytotoxicity, dose response, cytotoxicity control for non-replicating M. tuberculosis project (AID 489025); type: functional
[20] = Luminescence Cell-Based Dose Retest to Confirm Inhibitors of Cancer Stem Cells. [Related pubchem assays (depositor defined):AID2717, AID2721]; type: functional; conditions: Homo sapiens
[21] = Vero E6 cell cytotoxicity, dose response, cytotoxicity control for non-replicating M. tuberculosis project, secondary assay (AID 492998); type: functional, VeroE6; conditions: Vero C1008
[22] = HepG2 cell cytotoxicity, dose response, cytotoxicity control for non-replicating M. tuberculosis project (AID 489018); type: functional; conditions: Mycobacterium tuberculosis
[23] = target: T7, Calpain-2 catalytic subunit (Sus scrofa, UniProt P43367); assay: m-calpain protease blockers, concentration series – biochemical, fluorogenic peptide substrate, dose response (AID 1420); type: functional
T7 sequence (P43367 whole entry): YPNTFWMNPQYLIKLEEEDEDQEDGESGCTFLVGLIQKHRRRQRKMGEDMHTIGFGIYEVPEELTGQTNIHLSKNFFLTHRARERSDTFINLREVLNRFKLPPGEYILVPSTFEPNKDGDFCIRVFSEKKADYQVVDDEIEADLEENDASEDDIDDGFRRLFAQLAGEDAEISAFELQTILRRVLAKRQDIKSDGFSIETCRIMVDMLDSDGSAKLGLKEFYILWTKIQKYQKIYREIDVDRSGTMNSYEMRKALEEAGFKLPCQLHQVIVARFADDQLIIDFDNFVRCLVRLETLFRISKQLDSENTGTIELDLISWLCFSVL

[24] = viability loss in HEK293 cells – cell-based, plate reader, cherry-picked samples, cytotoxicity control, dose response (AID 743446); type: functional
[25] = target: Neurotensin receptor type 1 (Homo sapiens, UniProt P30989); type: functional;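 also: Image-based confirmatory dose-response assay measuring agonist activity at NTR1; NTR1-expressing U2OS osteosarcoma cells imaged for beta-arrestin GFP spot formation; agonist potency where compounds increase beta-arrestin recruitment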
[26] = A549 cell cytotoxicity, dose response, cytotoxicity control, plate reader, cherry-pick, antagonist series (AID 743412); type: functional, cell-based
[27] = target: Disintegrin and metalloproteinase domain-containing protein 17 (Homo sapiens, UniProt P78536); assay: inhibition of ADAM17 substrate cleavage – biochemical, quenched FRET substrate, counter-screen for ADAM10 exosite inhibitor project, dose response (AID 743253)
Chain of Disintegrin and metalloproteinase domain-containing protein 17 (P78536 whole entry, the tested form may be a part): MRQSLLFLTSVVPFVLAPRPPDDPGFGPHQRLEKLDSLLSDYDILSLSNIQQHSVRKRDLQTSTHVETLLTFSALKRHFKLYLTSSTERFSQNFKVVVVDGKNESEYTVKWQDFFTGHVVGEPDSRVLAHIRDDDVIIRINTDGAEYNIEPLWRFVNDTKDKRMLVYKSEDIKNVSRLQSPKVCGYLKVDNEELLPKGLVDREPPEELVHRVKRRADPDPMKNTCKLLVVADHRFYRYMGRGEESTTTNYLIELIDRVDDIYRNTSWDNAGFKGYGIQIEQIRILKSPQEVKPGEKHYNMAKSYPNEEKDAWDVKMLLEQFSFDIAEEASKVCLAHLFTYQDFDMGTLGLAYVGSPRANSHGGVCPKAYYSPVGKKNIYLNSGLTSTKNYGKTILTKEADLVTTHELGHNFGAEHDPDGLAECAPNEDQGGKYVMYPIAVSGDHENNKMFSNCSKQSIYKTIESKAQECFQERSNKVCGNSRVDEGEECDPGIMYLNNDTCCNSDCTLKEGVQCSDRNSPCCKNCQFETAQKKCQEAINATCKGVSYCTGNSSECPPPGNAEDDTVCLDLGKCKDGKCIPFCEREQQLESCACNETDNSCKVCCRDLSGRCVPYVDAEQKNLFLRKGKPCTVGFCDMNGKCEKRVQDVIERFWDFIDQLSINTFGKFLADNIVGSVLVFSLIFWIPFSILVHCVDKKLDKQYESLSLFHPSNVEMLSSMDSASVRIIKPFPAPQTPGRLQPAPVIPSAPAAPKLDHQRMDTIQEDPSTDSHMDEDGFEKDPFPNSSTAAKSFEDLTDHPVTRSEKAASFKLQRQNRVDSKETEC

T1 sequence (O95180 whole entry): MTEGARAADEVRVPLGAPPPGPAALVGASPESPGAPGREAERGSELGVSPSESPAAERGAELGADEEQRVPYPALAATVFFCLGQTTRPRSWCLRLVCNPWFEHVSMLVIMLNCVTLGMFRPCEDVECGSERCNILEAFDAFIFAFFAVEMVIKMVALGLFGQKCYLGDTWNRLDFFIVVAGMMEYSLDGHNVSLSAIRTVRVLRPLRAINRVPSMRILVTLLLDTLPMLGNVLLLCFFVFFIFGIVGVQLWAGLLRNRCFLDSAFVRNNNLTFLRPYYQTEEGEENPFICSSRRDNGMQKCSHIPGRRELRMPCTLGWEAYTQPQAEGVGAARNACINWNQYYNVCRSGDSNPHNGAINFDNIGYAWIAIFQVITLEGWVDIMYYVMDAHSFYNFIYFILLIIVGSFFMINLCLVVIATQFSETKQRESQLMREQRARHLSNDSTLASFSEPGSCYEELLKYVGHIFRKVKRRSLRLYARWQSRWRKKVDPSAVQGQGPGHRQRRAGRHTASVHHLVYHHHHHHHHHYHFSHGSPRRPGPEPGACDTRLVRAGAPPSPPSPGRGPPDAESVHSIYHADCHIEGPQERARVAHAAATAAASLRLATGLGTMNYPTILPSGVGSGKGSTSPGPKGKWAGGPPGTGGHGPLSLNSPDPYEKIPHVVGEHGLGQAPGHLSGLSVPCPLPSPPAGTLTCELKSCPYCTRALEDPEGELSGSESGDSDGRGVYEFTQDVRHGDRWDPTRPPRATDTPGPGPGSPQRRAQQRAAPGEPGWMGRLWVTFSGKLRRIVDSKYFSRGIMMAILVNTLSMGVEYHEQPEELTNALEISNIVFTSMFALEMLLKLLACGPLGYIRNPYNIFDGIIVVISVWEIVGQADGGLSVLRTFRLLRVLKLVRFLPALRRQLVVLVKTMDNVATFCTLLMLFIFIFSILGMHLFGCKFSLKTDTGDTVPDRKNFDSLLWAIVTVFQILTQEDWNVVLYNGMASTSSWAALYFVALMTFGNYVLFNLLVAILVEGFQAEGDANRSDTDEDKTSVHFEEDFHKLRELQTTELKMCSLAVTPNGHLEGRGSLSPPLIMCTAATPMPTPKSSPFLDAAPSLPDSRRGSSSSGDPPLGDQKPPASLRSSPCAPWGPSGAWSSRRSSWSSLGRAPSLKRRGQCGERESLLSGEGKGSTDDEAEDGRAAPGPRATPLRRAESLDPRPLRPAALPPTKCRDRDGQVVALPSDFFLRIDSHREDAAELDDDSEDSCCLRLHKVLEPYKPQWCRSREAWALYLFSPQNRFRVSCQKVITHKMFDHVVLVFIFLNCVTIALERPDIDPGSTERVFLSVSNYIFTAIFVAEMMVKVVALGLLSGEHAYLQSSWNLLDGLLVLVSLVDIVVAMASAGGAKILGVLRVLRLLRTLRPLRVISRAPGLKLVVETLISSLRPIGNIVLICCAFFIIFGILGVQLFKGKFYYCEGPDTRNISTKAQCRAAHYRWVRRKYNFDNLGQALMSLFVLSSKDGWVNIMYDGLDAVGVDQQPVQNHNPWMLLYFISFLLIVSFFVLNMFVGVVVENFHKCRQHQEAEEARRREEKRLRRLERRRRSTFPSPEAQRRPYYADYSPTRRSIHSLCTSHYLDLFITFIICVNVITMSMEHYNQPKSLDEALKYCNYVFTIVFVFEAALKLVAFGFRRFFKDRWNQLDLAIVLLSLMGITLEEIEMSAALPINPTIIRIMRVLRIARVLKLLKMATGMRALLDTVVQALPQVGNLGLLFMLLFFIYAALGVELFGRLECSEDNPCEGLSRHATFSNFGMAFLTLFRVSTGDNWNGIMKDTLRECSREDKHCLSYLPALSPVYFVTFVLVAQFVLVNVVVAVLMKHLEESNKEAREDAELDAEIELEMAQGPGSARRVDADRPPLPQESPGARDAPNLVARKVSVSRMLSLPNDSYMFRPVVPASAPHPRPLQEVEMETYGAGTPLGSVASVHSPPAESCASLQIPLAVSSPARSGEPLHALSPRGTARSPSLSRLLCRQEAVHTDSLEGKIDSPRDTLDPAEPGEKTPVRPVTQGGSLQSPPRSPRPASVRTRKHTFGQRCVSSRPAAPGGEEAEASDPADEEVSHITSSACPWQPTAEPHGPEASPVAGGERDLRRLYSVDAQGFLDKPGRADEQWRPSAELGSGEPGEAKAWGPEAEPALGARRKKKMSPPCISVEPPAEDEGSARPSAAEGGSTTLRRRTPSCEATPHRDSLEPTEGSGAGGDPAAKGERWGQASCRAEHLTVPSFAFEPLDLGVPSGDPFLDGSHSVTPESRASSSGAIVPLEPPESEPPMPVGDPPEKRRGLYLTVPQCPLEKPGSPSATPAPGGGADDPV
Chain of Neurotensin receptor type 1 (P30989 whole entry): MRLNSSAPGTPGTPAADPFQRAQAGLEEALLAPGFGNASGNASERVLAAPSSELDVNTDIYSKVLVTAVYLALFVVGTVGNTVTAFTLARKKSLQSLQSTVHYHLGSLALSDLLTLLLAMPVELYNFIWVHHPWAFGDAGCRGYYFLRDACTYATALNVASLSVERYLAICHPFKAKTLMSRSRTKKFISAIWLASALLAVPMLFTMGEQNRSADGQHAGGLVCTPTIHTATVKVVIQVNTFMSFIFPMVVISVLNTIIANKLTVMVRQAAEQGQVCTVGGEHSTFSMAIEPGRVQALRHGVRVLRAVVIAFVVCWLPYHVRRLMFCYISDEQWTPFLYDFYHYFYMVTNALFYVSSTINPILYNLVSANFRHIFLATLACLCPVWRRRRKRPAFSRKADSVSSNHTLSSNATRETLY
Chain of Paired box protein Pax-8 (Q06710 whole entry): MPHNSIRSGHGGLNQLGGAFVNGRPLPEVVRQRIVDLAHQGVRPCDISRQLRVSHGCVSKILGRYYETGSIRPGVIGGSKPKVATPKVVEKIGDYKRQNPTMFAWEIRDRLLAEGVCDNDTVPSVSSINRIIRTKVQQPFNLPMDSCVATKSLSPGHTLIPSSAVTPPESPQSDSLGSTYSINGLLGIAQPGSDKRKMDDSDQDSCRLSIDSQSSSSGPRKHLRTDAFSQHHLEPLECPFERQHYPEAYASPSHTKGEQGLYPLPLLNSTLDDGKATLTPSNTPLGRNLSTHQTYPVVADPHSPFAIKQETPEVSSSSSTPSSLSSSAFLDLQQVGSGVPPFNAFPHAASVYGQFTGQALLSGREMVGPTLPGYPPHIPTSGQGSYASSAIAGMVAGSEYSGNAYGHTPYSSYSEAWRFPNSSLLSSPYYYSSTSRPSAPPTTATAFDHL

Compound: COc1ccc(C(=O)Nc2nc(-c3cccs3)cs2)cc1
- EC50 [1]: 1.1 µM (active)
- IC50 [2]: 1.14 µM (active)
- IC50 [3]: > 50 µM (inactive)
- EC50 [4]: 1.08 µM (active)
- EC50 [5]: 5.31 µM (active)
- IC50 [6]: 57.1 µM (inactive)

Compound: CCOC(=O)/C(C#N)=C/Nc1cc(OC)ccc1OC
- EC50 [7]: > 85.3 µM (inactive)
- EC50 [8]: > 85.3 µM (inactive)

Compound: OC(CNCC(c1ccc(Cl)cc1Cl)c1c[nH]c2ccccc12)c1ccccc1 (configuration not stated)
- AC50 [9]: 11.2 µM (active)
- IC50 [10]: 13.4 µM (inactive)
- AC50 [11]: 14.7 µM (active)
- AC50 [12]: 21.1 µM (active)
- AC50 [13]: 19.2 µM (active)
- AC50 [14]: 38.2 µM (active)
- IC50 [15]: 12.3 µM (active)
- AC50 [16]: 14.8 µM (active)
- AC50 [17]: 8.61 µM (active)
- CC50 [18]: 6.04 µM (active)
- CC50 [19]: 6.38 µM (active)
- AC50 [20]: 2.12 µM (active)
- CC50 [21]: 6.27 µM (active)
- CC50 [22]: 7.75 µM (active)
- IC50 [23]: 11.4 µM (not active)
- AC50 [24]: 14.2 µM (active)
- EC50 [25]: 15.2 µM (active)
- AC50 [26]: 8.71 µM (active)
- IC50 [27]: > 69.5 µM (inactive)
